# Entries after “also recorded” stand apart in the source; their conditions may differ.
# Legend:
# [1] = molecular target: T1, MetAP1 (Homo sapiens, UniProt P53582); assay: Metal dependence of MetAP1 in the presence of glutathione, radioactive methionine assay; type: biochemical; details: 5 mM glutathione
# T1 construct: histidine tag (N); gp67 secretion signal of vector pAcGP67B (N); made in house; host or cells: baculovirus-infected Sf9 insect cells, secreted into medium
# Procedure: Fmoc-L-Lys(biotinyl) —OH was purchased from Bachem (King of Prussia, Pa.). Fmoc-L-[methyl-^3H]Methionine was synthesized by reacting Fmoc-Cl with L-[methyl-^3H]Methionine (Amersham, Piscataway, N.J.) in a 1:1 Dioxane/10% Na2CO3(aq) mixed solvent. The peptides were deprotected and cleaved from the resin using a trifluoroacetic acid solution containing water, thioanisole, and ethanedithiol (900 μl:25 μl:50 μl:25 μl) as scavengers. The peptides were purified by HPLC using a Waters C18 Symmetry column (7.8×300 mm, 7 μm; Milford, Mass.). […] The resulting amount of cleaved radioactive methionine is directly proportional to the catalytic activity of the MetAP. […] (See U.S. Pat. No. 6,156,495 for a discussion of labels and uses thereof). Conversely, anything impairing the catalytic activity of MetAP (e.g., inhibitory agents, wrong metal cofactor) will result in a decreased amount of free radioactive methionine.
# To study the effect of metal ions in the presence of physiologically relevant reduced glutathione (GSH) (Walker and Bradshaw, 1998), the assay measuring radioactive methionine release from a peptide described in Example 3.2 was used because GSH affected the coupled enzyme chromogenic assay.
# [2] = tested on: HCT-15; assay: Cell proliferation inhibition; type: cell-based; details: Homo sapiens, Tumor cells, read-out: IC50s of proliferation inhibition
# Description: (§1) Table 2 summarizes the selectivity of MetAP2 inhibitors in inhibiting the proliferation of endothelial cells and certain tumor cells. Proliferation of endothelial cells of various origins, normal human primary cells pf non-EC type, and tumor cell lines were studied with MetAP2 inhibitors A-357300 and fumagillin. […] Most tumor cells were […] while some were resistant.
# [3] = tested on: Mammary Epithelial cells; assay: Cell proliferation inhibition; type: cell-based; details: Normal human primary cells, read-out: IC50s of proliferation inhibition
# Description: as §1
# [4] = tested on: Astrocytes; assay: Cell proliferation inhibition; type: cell-based; details: Astrocyte, Normal human primary cells, read-out: IC50s of proliferation inhibition
# Description: as §1
# [5] = tested on: MCF7; assay: Cell proliferation inhibition; type: cell-based; details: Homo sapiens, Tumor cells, read-out: IC50s of proliferation inhibition
# Description: as §1
# [6] = tested on: MiaPaCa2; assay: Cell proliferation inhibition; type: cell-based; details: Homo sapiens, MIA PaCa-2, Tumor cells, read-out: IC50s of proliferation inhibition
# Description: as §1
# [7] = tested on: BAEC (bovine); assay: Cell proliferation inhibition; type: cell-based; details: Bos taurus, EC, read-out: IC50s of proliferation inhibition
# Description: as §1
# [8] = tested on: CHP-134; assay: Cell proliferation inhibition; type: cell-based; details: Homo sapiens, Tumor cells, read-out: IC50s of proliferation inhibition
# Description: as §1
# [9] = tested on: Prostate Epithelial cells; assay: Cell proliferation inhibition; type: cell-based; details: Normal human primary cells, read-out: IC50s of proliferation inhibition
# Description: as §1
# [10] = tested on: BEND3 (mouse); assay: Cell proliferation inhibition; type: cell-based; details: EC, read-out: IC50s of proliferation inhibition
# Description: as §1
# [11] = tested on: DLD-1; assay: Cell proliferation inhibition; type: cell-based; details: Homo sapiens, Tumor cells, read-out: IC50s of proliferation inhibition
# Description: as §1
# [12] = tested on: T-lymphocytes; assay: Cell proliferation inhibition; type: cell-based; details: T-lymphocyte, Normal human primary cells, read-out: IC50s of proliferation inhibition
# Description: as §1
# [13] = tested on: Fibroblasts; assay: Cell proliferation inhibition; type: cell-based; details: Fibroblast, Normal human primary cells, read-out: IC50s of proliferation inhibition
# Description: as §1
# [14] = tested on: PC3; assay: Cell proliferation inhibition; type: cell-based; details: Homo sapiens, PC-3, Tumor cells, read-out: IC50s of proliferation inhibition
# Description: as §1
# [15] = tested on: A549; assay: Cell proliferation inhibition; type: cell-based; details: Homo sapiens, Tumor cells, read-out: IC50s of proliferation inhibition
# Description: as §1
# [16] = tested on: Human CEC; assay: Cell proliferation inhibition; type: cell-based; details: EC, read-out: IC50s of proliferation inhibition
# Description: as §1
# [17] = tested on: MDA-435-LM; assay: Cell proliferation inhibition; type: cell-based; details: Homo sapiens, Tumor cells, read-out: IC50s of proliferation inhibition
# Description: as §1
# [18] = tested on: MDA-MB; assay: Cell proliferation inhibition; type: cell-based; details: Tumor cells, read-out: IC50s of proliferation inhibition
# Description: as §1
# [19] = tested on: NCI-H460; assay: Cell proliferation inhibition; type: cell-based; details: Homo sapiens, Tumor cells, read-out: IC50s of proliferation inhibition
# Description: as §1
# [20] = tested on: HT-1080; assay: Cell proliferation inhibition; type: cell-based; details: Homo sapiens, Tumor cells, read-out: IC50s of proliferation inhibition
# Description: as §1
# [21] = molecular target: T2, MetAP2 (Homo sapiens, UniProt P50579); assay: MetAP2 enzyme inhibition, coupled-enzyme chromogenic assay; type: biochemical; details: all metal ions
# T2 construct: gp67 secretion signal of vector pAcGP67B (N); made in house; host or cells: baculovirus-infected Sf9 insect cells, secreted into medium
# T2 sequence (P50579 whole entry): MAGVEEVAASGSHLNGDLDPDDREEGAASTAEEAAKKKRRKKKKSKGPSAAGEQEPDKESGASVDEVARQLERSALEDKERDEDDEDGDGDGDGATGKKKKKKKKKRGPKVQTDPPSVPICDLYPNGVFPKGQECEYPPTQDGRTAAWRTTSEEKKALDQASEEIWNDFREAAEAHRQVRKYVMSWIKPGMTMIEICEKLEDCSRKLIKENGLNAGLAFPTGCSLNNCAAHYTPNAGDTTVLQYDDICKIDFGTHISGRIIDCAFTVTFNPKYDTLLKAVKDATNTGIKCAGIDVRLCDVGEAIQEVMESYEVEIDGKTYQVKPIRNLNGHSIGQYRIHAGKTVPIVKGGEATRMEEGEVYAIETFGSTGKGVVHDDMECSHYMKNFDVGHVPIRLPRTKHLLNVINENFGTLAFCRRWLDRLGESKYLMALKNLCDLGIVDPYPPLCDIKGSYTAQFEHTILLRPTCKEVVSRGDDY
# Description: (§2) A coupled-enzyme chromogenic assay was used to measure methionine aminopeptidase activity by monitoring the production of free methionine cleaved from specific peptide substrates containing methionine. […] Other peptides can be used including dimeric, tetrameric, pentameric, hexameric, heptameric, nonameric, decameric, and undecameric peptides. […] Free methionine was oxidized with L-amino acid oxidase (AAO, Sigma Catalog No. A-9378) and horseradish peroxidase (HRP, Sigma Catalog No. P-8451). Oxidation by AAO of free methionine generates hydrogen peroxide (H2O2) which then reacts with HRP oxidizing 0-dianisidine (Sigma Catalog No. D-1954) or 10-acetyl-3,7-dihydrophenoxazine (Amplex Red, Molecular Probes). Assays were performed in 96-well microtiter plates. Enzyme preparations were diluted in assay buffer (50 mM HEPES, pH 7.4, 100 mM NaCl), and 10 μl of the enzymes were introduced into each well. A mixture (90 μl) of 0.1 mg/ml L-amino acid oxidase, 0.1 mg/ml of horseradish peroxidase, 0.1 mg/ml ortho-dianisidine, and 0.5 mM peptide substrate was added to each cell. The reactions were carried out at room temperature, and the absorbance at 450 nanometer (A450) was measured every 20 seconds over a period of twenty minutes using an automatic plate reader (Molecular Devices, Calif., USA). The rate in mOD/min, calculated for each well, was used to represent MetAP1 or MetAP2 activity. Under this assay condition, the methionine cleaved from peptide substrate by MetAP1 or MetAP2 was instantaneously oxidized to generate a final A450 readout.
# (§3) The cellular activity of A-357300 was tested in HMVEC grown in complete EGM2 medium enriched with a combination of growth factors (vascular endothelial growth factor (VEGF), basic fibroblast growth factor (bFGF), epidermal growth factor (EGF), and insulin-like growth factor (IGF)) and fetal bovine serum. […] To determine that the cellular effect of A-357300 was through inhibition of cellular MetAp2, HMVEC were incubated with the MetAP2 inhibitors fumagillin and A-357300 for 4 hours before ^35S-methionine was added to the culture. After another 2-hour incubation, cellular proteins were collected and applied to a reactive dye-agarose column as described in Example 6. MetAP2 specific substrates (GAPDH and other cellular proteins with a N-terminal cleavable initiator methionine) were captured on the agarose column.
# [22] = tested on: HMVEC/HUVEC; assay: Cell proliferation inhibition; type: cell-based; details: Homo sapiens, read-out: IC50s of proliferation inhibition
# Procedure: as §3
# [23] = molecular target: T3, cellular MetAP2 (Homo sapiens, UniProt P50579); assay: Cellular MetAP2 activity (unprocessed initiator methionine of cellular proteins) in HMVEC; type: cell-based
# T3 construct: host or cells: HMVEC
# T3 sequence (P50579 whole entry): as above
# Procedure: Human microvascular endothelial cells (HMVEC) (Clonetics, San Diego, Calif.) were grown in EGM2 recommended medium (Wang et al., J. Cell. Biochem. 77: 465-473, 2000). Cells in T75 flasks at approximately 70% confluence were changed to 15 ml EGLM (labeling medium, Clonetics) without added methionine. Fumagillin (Sigma Catalog No. F-6771) or A310840 (Abbott Laboratories, Abbott Park, Ill.) was added to the culture to final concentrations of 1 nM (fumagillin) or 0.5, 2 and 5 μM (A310840). The cells and inhibitors were incubated for four hours before adding 0.5 mCi/flask of ^35S-methionine (Amersham, Piscataway, N.J.). The cells were allowed further incubation for two hours, washed and lysed in 1 ml M-per (Pierce, Rockford, Ill.) buffer. The lysate samples having the same amount of radioactivity were loaded to a 0.5 ml column of Reactive Blue 72-agarose (Sigma, St. Louis, Mo.) equilibrated with 20 mM Tris/HCl, pH 7.5, 150 mM NaCl. The columns were washed with 30 ml equilibrium buffer, and then incubated with 3 ml of 100 nM MetAP2 in equilibration/washing buffer for 20 minutes at room temperature. The MetAP2 cleaved radioactivity (unprocessed initiator methionine) was then counted.
# as §3
# [24] = tested on: HMVEC; assay: 3-day HMVEC proliferation assay; type: cell-based, human; details: 1 nM
# Procedure: as §3
# [25] = molecular target: T2, MetAP2; assay: Metal dependence and baseline activity of MetAP2, chromogenic assay; type: biochemical
# Description: as §2
# Both MetAP1 and MetAP2 need the presence of a metal in the active site for optimal activity, and have previously been classified as Co^2+, metalloproteases (Arfin et al, 1995; Li and Chang, 1996). […]
# [26] = molecular target: T1, MetAP1; assay: Metal dependence and baseline activity of MetAP1, chromogenic assay; type: biochemical
# Description: as §2
# Both MetAP1 and MetAP2 need the presence of a metal in the active site for optimal activity, and have previously been classified as Co^2+, metalloproteases (Arfin et al, 1995; Li and Chang, 1996). […] Calcium chloride (Ca^2+), cobalt chloride (Co^2+), cupric chloride (Cu^2+), ferrous chloride (Fe^2+), magnesium chloride (Mg^2+), manganese chloride (Mn^2+), nickel chloride (Ni^2+), or zinc chloride (Zn^2+) was included in each assay at final concentrations of 0, 0.1, 1, 10, 100, 1000, and 10,000 μM in the assay buffer (50 mM HEPES, pH 7.4, 100 mM NaCl).
smiles,measurement,setting,value
"[Cl-].[Cl-].[Zn+2] [Zn^2+, zinc chloride]",effect on MetAP1 activity,[1],showed the best activity
"CO[C@@H]1[C@H](OC(=O)/C=C/C=C/C=C/C=C/C(=O)O)CC[C@]2(CO2)[C@H]1[C@@]1(C)O[C@@H]1CC=C(C)C [Fumagillin, fumagillin]",IC50,[2],3 nM
same,IC50,[3],> 1000 nM
same,IC50,[4],> 1000 nM
same,IC50,[5],> 1000 nM
same,IC50,[6],> 1000 nM
same,IC50,[7],1 nM
same,IC50,[8],1 nM
same,IC50,[9],> 1000 nM
same,IC50,[10],2 nM
same,IC50,[11],2 nM
same,IC50,[12],8300 nM
same,IC50,[13],> 1000 nM
same,IC50,[14],> 1000 nM
same,IC50,[15],2 nM
same,IC50,[16],1 nM
same,IC50,[17],> 1000 nM
same,IC50,[18],> 1000 nM
same,IC50,[19],3 nM
same,IC50,[20],1 nM
same,inhibition of MetAP2 with all metal ions,[21],inhibited MetAP2 with all metal ions
same,IC50,[22],1 nM
same,unprocessed N-terminal initiator methionine of cellular proteins in HMVEC,[23]; 1 nM,increased; also recorded: accumulation of unprocessed N-terminal methionine
same,inhibition of cellular MetAP2 activity / initiator methionine processing,[23]; HMVEC,inhibition; also recorded: able to block
same,inhibition of HMVEC cell proliferation,[24],inhibition of cell proliferation
"[Cl][Fe][Cl] [Fe^2+, ferrous chloride]",effect on MetAP1 activity,[1],stimulatory
"[Cl][Co][Cl] [Co^2+, cobalt chloride]",metal concentration of maximum effect on MetAP2,[25],10 µM
same,effect on MetAP1 activity,[1],stimulatory
same,stimulation of MetAP1 activity,[26]; MAS substrate,about 2 fold
same,stimulation of MetAP1 activity,[26]; MGAQFSKT substrate,5 fold

# — patent US20040077031A1, “Novel methionine aminopeptidase-2 and uses thereof” (priority 2002, published 2004)
